The record followed here is patent US20260001928A1 (CORTERIA PHARMACEUTICALS, priority 2022, published 2026).

For one experiment, the target named is T1, CFR1R receptor (Homo sapiens, UniProt P34998).
T1 construct: host or cells: CHO-K1 (clone 2)
T1 sequence (P34998 24-415): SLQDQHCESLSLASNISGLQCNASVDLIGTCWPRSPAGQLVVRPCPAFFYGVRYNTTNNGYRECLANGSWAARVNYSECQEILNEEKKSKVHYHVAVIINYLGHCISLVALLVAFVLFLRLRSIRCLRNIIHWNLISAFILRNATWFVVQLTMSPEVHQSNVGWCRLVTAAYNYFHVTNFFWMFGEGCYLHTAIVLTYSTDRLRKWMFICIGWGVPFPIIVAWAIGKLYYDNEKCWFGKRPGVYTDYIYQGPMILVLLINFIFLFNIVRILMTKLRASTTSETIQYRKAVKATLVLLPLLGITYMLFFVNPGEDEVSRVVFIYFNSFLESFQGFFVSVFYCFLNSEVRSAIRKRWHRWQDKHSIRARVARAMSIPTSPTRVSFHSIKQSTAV
Put plainly: Activity at anti-target CFR1R receptor, cAMP assay in CRF1R-overexpression CHO-K1 cells. The class given is cell-based. The conditions noted are these: 100% = Sauvagine at 100 nM; for EC50: cAMP. In outline:
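Signal is normalised to 100 nM Sauvagine, taken as 100% activation, in clone 2 cells plated at a final 4000 cells/well from frozen stocks.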
(Changes in cAMP serve as a functional read-out for many G protein-coupled receptors.)

A further experiment has as its target T2, human CRF2a receptor (Homo sapiens, UniProt Q13324).
T2 construct: expressed in transfected cells; host or cells: TeloHEAC cells
T2 sequence (Q13324 1-411): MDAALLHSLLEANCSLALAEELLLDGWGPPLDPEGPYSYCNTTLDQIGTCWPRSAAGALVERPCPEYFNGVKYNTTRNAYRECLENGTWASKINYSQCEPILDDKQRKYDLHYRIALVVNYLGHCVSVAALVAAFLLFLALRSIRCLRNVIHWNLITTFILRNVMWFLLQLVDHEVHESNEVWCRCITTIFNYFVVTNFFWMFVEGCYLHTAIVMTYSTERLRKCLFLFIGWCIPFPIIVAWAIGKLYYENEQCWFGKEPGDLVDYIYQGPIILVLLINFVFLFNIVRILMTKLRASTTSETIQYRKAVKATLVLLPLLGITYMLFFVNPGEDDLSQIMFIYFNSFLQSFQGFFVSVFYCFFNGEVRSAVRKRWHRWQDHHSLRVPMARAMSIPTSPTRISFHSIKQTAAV
Description: Activity at human CRF2a receptor, cAMP functional assay in TeloHEAC cells. The class given is cell-based. The note with it: TeloHEAC cells stably expressing human CRF2a receptor, relative to urocortin 2 (100 nM = 100%). The method in brief:
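TeloHEAC cells stably expressing human CRF2a (10000 cells/well, suspended in HBSS/20 mM HEPES with 2 mM IBMX) were exposed to compounds for 30 min at 37 °C. cAMP was read as the 665/620 nm fluorescence ratio after 1 h at room temperature. EC50 was derived relative to 100 nM urocortin 2, set as 100%.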

*1 amine or outer side, *2 acyl side, *3 side chain or, on linkers, in order; H or OH if unused. Where a SMILES comes first, the peptide text is derived from it. Side-chain parts run from the residue outwards. [ ]: non-standard residue; d: D form. The star is where a group is joined. C18 diacid = O=C(O)CCCCCCCCCCCCCCCCC(=O)*; C16 diacid = O=C(O)CCCCCCCCCCCCCCC(=O)*; γGlu = O=C(O)[C@H](CCC(=O)[*:2])N[*:1]; NMeI = CC[C@H](C)[C@H](NC)C(=O)O; Api = NC1(C(=O)O)CCNCC1; Dap = NC[C@H](N)C(=O)O; AEEA = NCCOCCOCC(=O)O

Consider `CC[C@H](C)[C@H](NC)C(=O)N[C@H](C(=O)N[C@@H](CC(C)C)C(=O)N[C@@H](CO)C(=O)N[C@@H](CC(C)C)C(=O)N[C@@H](CC(=O)O)C(=O)N[C@@H](C(=O)N1CCC[C@H]1C(=O)N[C@H](C(=O)N[C@@H](CCCCN)C(=O)N[C@@H](CC(C)C)C(=O)N[C@@H](CCCCNC(=O)CC[C@H](NC(=O)CCCCCCCCCCCCCCCCC(=O)O)C(=O)O)C(=O)N[C@@H](CCCCN)C(=O)N[C@H](C(=O)N[C@@H](CC(C)C)C(=O)N[C@@H](CC(C)C)C(=O)N[C@@H](CCC(=O)O)C(=O)N[C@@H](CCC(N)=O)C(=O)N[C@@H](CCC(=O)O)C(=O)N[C@@H](CCCCN)C(=O)N[C@@H](CCC(N)=O)C(=O)N[C@@H](CCCCN)C(=O)N[C@@H](CCCCN)C(=O)N[C@@H](CCC(N)=O)C(=O)N[C@@H](CCCNC(=N)N)C(=O)N[C@@H](CCC(=O)O)C(=O)N[C@@H](CCC(N)=O)C(=O)N[C@@H](C)C(=O)N[C@@H](CCC(=O)O)C(=O)N[C@H](C(=O)N[C@@H](CC(N)=O)C(=O)N[C@@H](CN)C(=O)N[C@@H](CCC(N)=O)C(=O)N[C@H](C(=O)N[C@@H](CC(C)C)C(=O)N[C@@H](C)C(=O)N[C@@H](CCC(N)=O)C(=O)N[C@H](C(N)=O)C(C)C)[C@@H](C)CC)[C@@H](C)O)[C@@H](C)CC)[C@@H](C)CC)C(C)C)C(C)C` [compound 140] (H-[NMeI]VLSLD[dV]PIKLK([γGlu-C18 diacid])KILLEQEKQKKQREQAETN[Dap]QILAQV-NH2), for which, at CFR1R receptor, the “Emax (% I)” value stood at 14 % I and the EC50 was more than 250 nM. At human CRF2a receptor, the EC50 turned out to be 0.17 nM.
With `CC[C@H](C)[C@H](NC)C(=O)N[C@H](C(=O)N[C@@H](CC(C)C)C(=O)N[C@@H](CO)C(=O)N[C@@H](CC(C)C)C(=O)N[C@@H](CC(=O)O)C(=O)N[C@@H](C(=O)N1CCC[C@H]1C(=O)N[C@H](C(=O)N[C@@H](CCCCN)C(=O)N[C@@H](CC(C)C)C(=O)N[C@@H](CCCCNC(=O)CC[C@H](NC(=O)CCCCCCCCCCCCCCCCC(=O)O)C(=O)O)C(=O)N[C@@H](CCCCN)C(=O)N[C@H](C(=O)N[C@@H](CC(C)C)C(=O)N[C@@H](CC(C)C)C(=O)N[C@@H](CCC(=O)O)C(=O)N[C@@H](CCC(N)=O)C(=O)N[C@@H](CCC(=O)O)C(=O)N[C@@H](CCCCN)C(=O)N[C@@H](CCC(N)=O)C(=O)N[C@@H](CCCCN)C(=O)N[C@@H](CCCCN)C(=O)N[C@@H](CCC(N)=O)C(=O)N[C@@H](CCCNC(=N)N)C(=O)N[C@@H](CCC(=O)O)C(=O)N[C@@H](CCC(N)=O)C(=O)N[C@@H](C)C(=O)N[C@@H](CCC(=O)O)C(=O)N[C@H](C(=O)N[C@@H](CC(N)=O)C(=O)NC1(C(=O)N[C@@H](CCC(N)=O)C(=O)N[C@H](C(=O)N[C@@H](CC(C)C)C(=O)N[C@@H](C)C(=O)N[C@@H](CCC(N)=O)C(=O)N[C@H](C(N)=O)C(C)C)[C@@H](C)CC)CCNCC1)[C@@H](C)O)[C@@H](C)CC)[C@@H](C)CC)C(C)C)C(C)C` [compound 141] (H-[NMeI]VLSLD[dV]PIKLK([γGlu-C18 diacid])KILLEQEKQKKQREQAETN[Api]QILAQV-NH2), at CFR1R receptor, the “Emax (% I)” value is recorded as 32 % I and the EC50 is more than 250 nM. This compound registered an EC50 on human CRF2a receptor of 0.16 nM.
In the same order, the values of `CC[C@H](C)[C@H](NC)C(=O)N[C@H](C(=O)N[C@@H](CC(C)C)C(=O)N[C@@H](CO)C(=O)N[C@@H](CC(C)C)C(=O)N[C@@H](CC(=O)O)C(=O)N[C@@H](C(=O)N1CCC[C@H]1C(=O)N[C@H](C(=O)N[C@@H](CCCCN)C(=O)N[C@@H](CC(C)C)C(=O)N[C@@H](CCCCNC(=O)CC[C@H](NC(=O)CCCCCCCCCCCCCCCCC(=O)O)C(=O)O)C(=O)N[C@@H](CCCCN)C(=O)N[C@H](C(=O)N[C@@H](CC(C)C)C(=O)N[C@@H](CC(C)C)C(=O)N[C@@H](CCC(=O)O)C(=O)N[C@@H](CCC(N)=O)C(=O)N[C@@H](CCC(=O)O)C(=O)N[C@@H](CCCCN)C(=O)N[C@@H](CCC(N)=O)C(=O)N[C@@H](CCCCN)C(=O)N[C@@H](CCCCN)C(=O)N[C@@H](CCC(N)=O)C(=O)N[C@@H](CCCNC(=N)N)C(=O)N[C@@H](CCC(=O)O)C(=O)N[C@@H](CCC(N)=O)C(=O)N[C@@H](C)C(=O)N[C@@H](CCC(=O)O)C(=O)N[C@H](C(=O)N[C@@H](CC(N)=O)C(=O)N[C@@H](CCC(=O)O)C(=O)N[C@@H](CCC(N)=O)C(=O)N[C@H](C(=O)N[C@@H](CC(C)C)C(=O)N[C@@H](C)C(=O)N[C@@H](CCC(N)=O)C(=O)N[C@H](C(N)=O)C(C)C)[C@@H](C)CC)[C@@H](C)O)[C@@H](C)CC)[C@@H](C)CC)C(C)C)C(C)C` [compound 142] (H-[NMeI]VLSLD[dV]PIKLK([γGlu-C18 diacid])KILLEQEKQKKQREQAETNEQILAQV-NH2) are 3 % I, more than 250 nM and 0.07 nM.
For `CC[C@H](C)[C@H](N)C(=O)N[C@H](C(=O)N[C@@H](CC(C)C)C(=O)N[C@@H](CO)C(=O)N[C@@H](CC(C)C)C(=O)N[C@@H](CC(=O)O)C(=O)N[C@@H](C(=O)N1CCC[C@H]1C(=O)N[C@H](C(=O)N[C@@H](CCCCN)C(=O)N[C@@H](CC(C)C)C(=O)N[C@@H](CCCCNC(=O)COCCOCCNC(=O)COCCOCCNC(=O)CC[C@H](NC(=O)CCCCCCCCCCCCCCCCC(=O)O)C(=O)O)C(=O)N[C@@H](CCC(N)=O)C(=O)N[C@H](C(=O)N[C@@H](CC(C)C)C(=O)N[C@@H](CC(C)C)C(=O)N[C@@H](CCCCN)C(=O)N[C@@H](CCC(N)=O)C(=O)N[C@@H](CCC(=O)O)C(=O)N[C@@H](CCCNC(=N)N)C(=O)N[C@@H](CCC(N)=O)C(=O)N[C@@H](CCCCN)C(=O)N[C@@H](CCCCN)C(=O)N[C@@H](CCC(N)=O)C(=O)N[C@@H](CCCNC(=N)N)C(=O)N[C@@H](CCC(=O)O)C(=O)N[C@@H](CCC(N)=O)C(=O)N[C@@H](C)C(=O)N[C@@H](CCC(=O)O)C(=O)N[C@@H](CCCCN)C(=O)N[C@@H](CC(N)=O)C(=O)N[C@@H](CCCCN)C(=O)N[C@@H](CCC(N)=O)C(=O)N[C@H](C(=O)N[C@@H](CC(C)C)C(=O)N[C@@H](CCC(=O)O)C(=O)N[C@@H](CCC(N)=O)C(=O)N[C@H](C(N)=O)C(C)C)[C@@H](C)CC)[C@@H](C)CC)[C@@H](C)CC)C(C)C)C(C)C` [compound 150] (H-IVLSLD[dV]PIKLK([AEEA-AEEA-γGlu-C18 diacid])QILLKQERQKKQREQAEKNKQILEQV-NH2), in that order: 38 % I, more than 250 nM and 0.25 nM.
Consider `CC[C@H](C)[C@H](N)C(=O)N[C@H](C(=O)N[C@@H](CC(C)C)C(=O)N[C@@H](CO)C(=O)N[C@@H](CC(C)C)C(=O)N[C@@H](CC(=O)O)C(=O)N[C@@H](C(=O)N1CCC[C@H]1C(=O)N[C@H](C(=O)N[C@@H](CCCCN)C(=O)N[C@@H](CC(C)C)C(=O)N[C@@H](CCCCNC(=O)CC[C@H](NC(=O)CCCCCCCCCCCCCCC(=O)O)C(=O)O)C(=O)N[C@@H](CCC(N)=O)C(=O)N[C@H](C(=O)N[C@@H](CC(C)C)C(=O)N[C@@H](CC(C)C)C(=O)N[C@@H](CCCCN)C(=O)N[C@@H](CCC(N)=O)C(=O)N[C@@H](CCC(=O)O)C(=O)N[C@@H](CCCNC(=N)N)C(=O)N[C@@H](CCC(N)=O)C(=O)N[C@@H](CCCCN)C(=O)N[C@@H](CCCCN)C(=O)N[C@@H](CCC(N)=O)C(=O)N[C@@H](CCCNC(=N)N)C(=O)N[C@@H](CCC(=O)O)C(=O)N[C@@H](CCC(N)=O)C(=O)N[C@@H](C)C(=O)N[C@@H](CCC(=O)O)C(=O)N[C@@H](CCCCN)C(=O)N[C@@H](CC(N)=O)C(=O)N[C@@H](CCCCN)C(=O)N[C@@H](CCC(N)=O)C(=O)N[C@H](C(=O)N[C@@H](CC(C)C)C(=O)N[C@@H](CCC(=O)O)C(=O)N[C@@H](CCC(N)=O)C(=O)N[C@H](C(N)=O)C(C)C)[C@@H](C)CC)[C@@H](C)CC)[C@@H](C)CC)C(C)C)C(C)C` [compound 151] (H-IVLSLD[dV]PIKLK([γGlu-C16 diacid])QILLKQERQKKQREQAEKNKQILEQV-NH2), for which the “Emax (% I)” value on CFR1R receptor was determined as 53 % I. At human CRF2a receptor, this compound had an EC50 of 0.12 nM.

One may read the EC50 as the concentration at which the effect is half-maximal. A lower EC50 goes with higher potency in that assay.
